Data taken from ChEMBL document CHEMBL4152334, “Synthesis, molecular docking and biological evaluation of novel phthaloyl derivatives of 3-amino-3-aryl propionic acids as inhibitors of Trypanosoma cruzi trans-sialidase” (2018).

Columns and labels:
Trypanosoma cruzi [1] = assay: Trypanocidal activity against trypomastigote stage of Trypanosoma cruzi NINOA infected in NIH mouse blood assessed as parasite lysis at 10 ug/ml after 24 hrs by optical microscopic method relative to control; assay type: functional
Trypanosoma cruzi [2] = assay: Trypanocidal activity against trypomastigote stage of Trypanosoma cruzi NINOA infected in NIH mouse blood assessed as […] parasite lysis after 24 hrs by optical microscopic method; assay type: functional
Trypanosoma cruzi [3] = assay: Trypanocidal activity against trypomastigote stage of Trypanosoma cruzi INC-5 infected in NIH mouse blood assessed as parasite lysis at 10 ug/ml after 24 hrs by optical microscopic method relative to control; assay type: functional
Trypanosoma cruzi [4] = assay: Trypanocidal activity against trypomastigote stage of Trypanosoma cruzi INC-5 infected in NIH mouse blood assessed as parasite lysis after 24 hrs by optical microscopic method; assay type: functional; settings: INC-5, Blood
[5] = molecular target: T1, Trans-sialidase (Trypanosoma cruzi) (UniProt Q26964); assay: Inhibition of Trypanosoma cruzi trans-sialidase at 1 mM assessed as reduction of 3'-sialyl-N-acetyllactosamine formation at 1 mM using N-acetyllactosamine as substrate and 3-sialyl-lactose as donor incubated for 15 mins by HPAEC-PAD relative to control
T1 sequence (whole entry): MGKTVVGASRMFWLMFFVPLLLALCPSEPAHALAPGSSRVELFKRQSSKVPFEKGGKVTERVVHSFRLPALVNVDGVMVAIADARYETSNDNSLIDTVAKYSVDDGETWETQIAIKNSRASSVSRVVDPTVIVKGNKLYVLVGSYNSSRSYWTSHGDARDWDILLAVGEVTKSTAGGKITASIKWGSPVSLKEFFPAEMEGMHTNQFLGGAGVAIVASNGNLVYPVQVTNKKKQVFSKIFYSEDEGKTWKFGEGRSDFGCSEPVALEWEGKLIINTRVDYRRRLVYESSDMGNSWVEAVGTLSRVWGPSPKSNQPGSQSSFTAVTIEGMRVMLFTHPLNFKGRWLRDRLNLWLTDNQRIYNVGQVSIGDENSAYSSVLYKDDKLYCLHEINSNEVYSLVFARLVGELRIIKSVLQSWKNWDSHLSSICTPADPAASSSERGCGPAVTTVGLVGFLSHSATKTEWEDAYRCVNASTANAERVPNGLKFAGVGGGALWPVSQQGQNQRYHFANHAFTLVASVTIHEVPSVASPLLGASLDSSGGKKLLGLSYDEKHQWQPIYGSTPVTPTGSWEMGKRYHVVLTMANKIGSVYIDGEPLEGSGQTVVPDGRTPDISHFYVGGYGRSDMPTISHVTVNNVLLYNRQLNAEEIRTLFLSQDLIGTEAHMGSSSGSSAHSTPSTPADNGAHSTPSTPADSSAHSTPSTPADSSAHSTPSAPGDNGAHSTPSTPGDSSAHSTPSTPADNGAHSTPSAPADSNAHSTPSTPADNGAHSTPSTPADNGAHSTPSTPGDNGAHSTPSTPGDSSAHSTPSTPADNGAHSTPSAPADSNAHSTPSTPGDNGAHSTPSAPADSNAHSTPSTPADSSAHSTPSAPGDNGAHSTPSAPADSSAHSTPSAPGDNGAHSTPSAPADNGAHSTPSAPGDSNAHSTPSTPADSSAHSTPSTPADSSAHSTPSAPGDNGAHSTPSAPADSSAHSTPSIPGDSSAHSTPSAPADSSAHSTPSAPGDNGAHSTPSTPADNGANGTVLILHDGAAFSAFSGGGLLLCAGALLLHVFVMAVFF

Row | Compound | Activity (Trypanosoma cruzi [1]) | LC50 (Trypanosoma cruzi [2]) | Activity (Trypanosoma cruzi [3]) | LC50 (Trypanosoma cruzi [4]) | inhibition [5]
1 | COc1ccc(C(CC(=O)O)N2C(=O)c3ccc(C)cc3C2=O)cc1 (centres undefined) | 78% | 65.6 µM | 57% | 59.5 µM | –
2 | CCc1ccc(C(CC(=O)O)N2C(=O)c3ccc(C(=O)O)cc3C2=O)cc1 (centres undefined) | 23% | – | 61% | – | –
3 | O=C(O)CC(c1ccc2c(c1)OCCO2)N1C(=O)c2ccc(C(=O)O)cc2C1=O (centres undefined) | 33% | – | 47% | – | –
4 | O=C(O)CC(c1ccc2ccccc2c1)N1C(=O)c2ccc(C(=O)O)cc2C1=O (centres undefined) | 42% | – | 24% | – | 66.9%
5 | O=C(O)CC(c1cc2c(cc1[N+](=O)[O-])OCCO2)N1C(=O)c2ccccc2C1=O (centres undefined) | 54% | – | 13% | – | –
6 | O=C(O)CC(c1ccccc1[N+](=O)[O-])N1C(=O)c2ccccc2C1=O (centres undefined) | 56% | – | 68% | – | –
7 | CCc1ccc(C(CC(=O)O)N2C(=O)c3ccc(C)cc3C2=O)cc1 (centres undefined) | 65% | – | 59% | – | –
8 | NC(CC(=O)O)c1ccc([N+](=O)[O-])cc1 (centres undefined) | 50% | 125 µM | 68% | 249 µM | –
9 | NC(CC(=O)O)c1ccc(Br)cc1 (centres undefined) | 20% | – | 18% | – | –
10 | COc1ccc(C(CC(=O)O)N2C(=O)c3ccc(C(=O)O)cc3C2=O)cc1 (centres undefined) | 72% | – | 32% | – | –
11 | O=C(Cn1ccnc1[N+](=O)[O-])NCc1ccccc1 [BENZNIDAZOLE] | 46.3% | 130 µM | 56% | 124 µM | –
12 | NC(CC(=O)O)c1ccc(F)cc1 (centres undefined) | 35% | – | 62% | – | –
13 | NC(CC(=O)O)c1ccc(-c2ccccc2)cc1 (centres undefined) | 32% | – | 37% | – | –
14 | O=C(O)CC(c1ccc2ccccc2c1)N1C(=O)c2ccccc2C1=O (centres undefined) | 57% | 97.3 µM | 62% | 117 µM | 65.8%
15 | O=C(O)CC(c1ccc2c(c1)OCCO2)N1C(=O)c2ccccc2C1=O (centres undefined) | 24% | – | 41% | – | –
16 | CCc1ccc(C(N)CC(=O)O)cc1 (centres undefined) | 65% | 113 µM | 50% | 264 µM | –
17 | O=C(O)CC(c1ccc(F)cc1)N1C(=O)c2ccc(C(=O)O)cc2C1=O (centres undefined) | 10% | – | 67% | – | –
18 | O=C(O)CC(c1ccc(F)cc1)N1C(=O)c2ccccc2C1=O (centres undefined) | 63% | 90.8 µM | 52% | 81.4 µM | –
19 | O=C(O)CC(c1ccc([N+](=O)[O-])cc1)N1C(=O)c2ccccc2C1=O (centres undefined) | 62% | 53.5 µM | 80% | 119 µM | –
20 | Cc1ccc2c(c1)C(=O)N(C(CC(=O)O)c1ccc(F)cc1)C2=O (centres undefined) | 63% | 45.2 µM | 56% | 74.6 µM | –
21 | Cc1ccc2c(c1)C(=O)N(C(CC(=O)O)c1ccccc1[N+](=O)[O-])C2=O (centres undefined) | 22% | – | 65% | – | –
22 | COc1ccc(C(N)CC(=O)O)cc1 (centres undefined) | 83% | 102 µM | 54% | 256 µM | –
23 | O=C(O)CC(c1ccc(-c2ccccc2)cc1)N1C(=O)c2ccc(C(=O)O)cc2C1=O (centres undefined) | 17% | – | 57% | – | –
24 | Cc1ccc(C(CC(=O)O)N2C(=O)c3ccccc3C2=O)cc1 (centres undefined) | 23% | – | 22% | – | –
25 | NC(CC(=O)O)c1ccc(Cl)cc1 (centres undefined) | 13% | – | 73% | – | –
26 | CC1CS(=O)(=O)CCN1/N=C/c1ccc([N+](=O)[O-])o1 (centres undefined) [NIFURTIMOX] | 40.74% | – | 50% | – | –
27 | O=C(O)CC(c1ccc(Br)cc1)N1C(=O)c2ccccc2C1=O (centres undefined) | 8% | – | 15% | – | –
28 | Cc1ccc2c(c1)C(=O)N(C(CC(=O)O)c1ccc(O)cc1)C2=O (centres undefined) | 38% | – | 15% | – | 82.5%
29 | O=C(O)CC(c1cccs1)N1C(=O)c2ccccc2C1=O (centres undefined) | 22% | – | 25% | – | –
